The values that follow come from article PMC3548994 (Biochemistry, 2012).

Non-standard residues stand in square brackets, D forms with d. No end group written: not given here. pT = C[C@@H](OP(=O)(O)O)[C@H](N)C(=O)O

Assay [1] has as its system Pin1-WW domain binding surface. Description: HSQC NMR of WW53 and mutants versus WW50.
For assay [2], the target named is Pin1-WW domain (WW50, Pin1 residues 1-50) (Homo sapiens, UniProt Q13526). Description: NMR titration of ^15N-WW50 with phosphate or HEPES. In kind it is binding. The note with it: at 10 mM buffer anion and 1 mM WW domain, calculated from KD.
Assay [3] concerns the target Pin1-WW domain construct WW50 (Pin1 residues 1-50) (UniProt Q13526 1-50, 15N-labelled (uniform) in the NMR titrations). Description: NMR titration.
Setting [4] is: C-terminal mutants of WW53 compared with WW53 and WW50.

Consider “WW53 E51A: WW53 construct (Pin1 residues 1-53) with E51A mutation (MADEEKLPPGWEKRMSRSSGRVYYFNHITNASQWERPSGNSSSGGKNGQGAPA; residues 1-53 (WW domain); UniProt Q13526 1-53, looked up, variant E51A)”, for which the “HSQC peak shifts of key binding surface residues versus WW53” value in assay [1] (setting [4]) is “progressive peak shifts for key binding surface residues”; in assay [1] (C-terminal mutants of WW53 compared with WW53 and WW50, listed as E51A), “progressively shifted some key binding surface peaks toward their WW50 positions”.

For `O=S(=O)(O)CCN1CCN(CCO)CC1` [HEPES], in assay [2], the “WW domain bound to buffer anion” value is listed as 6%. For the molecule “WW53 E51A/P52A: WW53 construct (Pin1 residues 1-53) with E51A/P52A mutations (MADEEKLPPGWEKRMSRSSGRVYYFNHITNASQWERPSGNSSSGGKNGQGAAA; residues 1-53 (WW domain); UniProt Q13526 1-53, looked up, variant E51A P52A)”, in assay [1] (setting [4]), the “HSQC peak shifts of key binding surface residues versus WW53” value is “progressive peak shifts for key binding surface residues”. `O=P(O)(O)O` [phosphate, sodium phosphate]: the “WW domain bound to buffer anion” value in assay [2] is given as 15%. In assay [3], GVVEVDAAV[pT]PEERHLSKMQQNGY (peptide, UniProt P05067-4 659-682, looked up) [phosphopeptide representing APP residues 659-682 phosphorylated at T668 (pAPP659-682)] returned a koff of 2040 s⁻¹ and a kon of 9.1e+07 M⁻¹ s⁻¹.

One may read the koff as the rate constant with which the complex falls apart. A word on the kon: it is the rate constant with which the complex forms.
